Measurements published in paper PMC12650729 (Biology, 2025).
Where two headings read alike, the source gives them in different places.

Assays:
EV-A71 [1] = assay: Antiviral evaluation in vivo, EV-A71-infected BALB/c young mice (tissue viral load, H&E); conditions: same dosing
CV-A9 [2] = assay: EC50 evaluation against CV-A9 in RD cells (viral nucleic acid load); assay type: cell-based; conditions: read-out: EC50 against CV-A9
CV-B3 = assay: EC50 evaluation against CV-B3 in Vero E6 cells (viral nucleic acid load); assay type: cell-based
EV-A71 [3] = assay: microbe, parasite or virus in culture; assay type: cell-based; conditions: Enterovirus A, EVA71, RD, read-out: EC50 against EV-A71
PV1 = assay: microbe, parasite or virus in culture; assay type: cell-based, poliovirus 1; conditions: Enterovirus C, RD, read-out: EC50 against PV1
Echo-11 = assay: EC50 evaluation against Echo-11 in RD cells; assay type: cell-based
CV-A9 [4] = assay: EC50 evaluation against CV-A9 in Huh-7 cells; assay type: cell-based
[5] = CC50 evaluation, CellTiter-Blue cell viability assay, RD cells; assay type: cell-based; conditions: human, RD cells (human rhabdomyosarcoma), parallel to CV-A9 assay
CV-A9 [6] = assay: Time-of-addition assay, CV-A9; assay type: cell-based; conditions: 25 μM, RD cells, MOI 0.001
CV-B3 3C^pro = CV-B3 3C^pro (Coxsackievirus B3, UniProt P03313); assay: FRET-based protease assay, CV-B3 3C protease; assay type: biochemical; conditions: 1 mM
CV-A9 2A^pro = assay: FRET-based protease assay, CV-A9 2A protease; assay type: biochemical; conditions: pre-incubated 30 min
MCP-1 = assay: Cytokine expression analysis, MCP-1 mRNA in CV-A9-infected RD cells; assay type: cell-based, Human; conditions: MOI 0.001, 24 h
Method: (§1) Figure S13. Effect of bioactive compounds on the expression of MCP-1 and COX-
(§2) 2 induced by CV-A9 infection.
(§3) MCP-1 (a) and COX-2 (b) mRNA levels in RD cells were quantified by RT-qPCR at
(§4) 24 h.p.i following CV-A9 infection (MOI=0.001) and treatment with 50 μM velutin,
(§5) isorhamnetin, or (−)-epicatechin gallate. Representative curves of at least two

COX-2 = assay: Cytokine expression analysis, COX-2 mRNA in CV-A9-infected RD cells; assay type: cell-based, Human; conditions: MOI 0.001, 24 h
Method: as §1, §2, §3, §4, §5

IRES = conditions: 293T cells, Fluc/Rluc
in vitro [7] = conditions: African green monkey
in vitro [8] = conditions: human
CV-A9 3D^pol = CV-A9 3D^pol (Coxsackievirus A9, UniProt P21404); assay: In vitro RNA primer extension assay using 3D^pol
IL-6 = assay: Cytokine expression analysis, IL-6 mRNA in CV-A9-infected RD cells; conditions: Homo sapiens, 24 h, read-out: inhibition of CV-A9-induced IL-6 upregulation
TNF-α = assay: Cytokine expression analysis, TNF-α mRNA in CV-A9-infected RD cells
CV-A9 [9] = assay: Primary screening for antiviral compounds by cytopathic effects (CPEs); conditions: 10 μM, RD cells, 36 h.p.i.
CV-A9 [10] = assay: Drug combination, Zero Interaction Potency (ZIP) model, SynergyFinder, CV-A9-infected RD cells; conditions: CV-A9 MOI 0.001, RD cells; -10 to 10 additive
CV-A9 [11] = assay: organism not typed; assay type: cell-based; conditions: for inhibition at 25 µM: RD
CV-A9 [12] = assay: Post-entry inhibitory effect (viral RNA kinetics), CV-A9 in RD cells; assay type: cell-based; conditions: 25 μM added at 2 h post-infection, cells and supernatants
[13] = Vero C1008, read-out: EC50 against CV-B3
[14] = Huh-7, read-out: EC50 against CV-A9
[15] = read-out: inhibition of CV-A9 attachment

CV-A9 3D^pol, sequence (P21404 1740-2201): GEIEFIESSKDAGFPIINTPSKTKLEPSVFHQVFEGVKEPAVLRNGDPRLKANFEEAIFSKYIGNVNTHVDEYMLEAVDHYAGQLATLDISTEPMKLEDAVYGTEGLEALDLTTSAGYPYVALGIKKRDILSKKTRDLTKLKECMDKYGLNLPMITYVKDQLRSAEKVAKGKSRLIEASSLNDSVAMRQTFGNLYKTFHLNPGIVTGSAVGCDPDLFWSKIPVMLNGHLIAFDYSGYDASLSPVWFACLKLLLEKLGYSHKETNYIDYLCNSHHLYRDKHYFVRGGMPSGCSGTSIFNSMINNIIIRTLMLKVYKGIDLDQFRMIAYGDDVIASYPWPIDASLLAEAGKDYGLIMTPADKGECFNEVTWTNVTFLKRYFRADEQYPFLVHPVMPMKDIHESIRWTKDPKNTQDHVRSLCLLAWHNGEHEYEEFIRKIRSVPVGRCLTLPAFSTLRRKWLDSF
CV-B3 3C^pro, sequence (P03313 1541-1723): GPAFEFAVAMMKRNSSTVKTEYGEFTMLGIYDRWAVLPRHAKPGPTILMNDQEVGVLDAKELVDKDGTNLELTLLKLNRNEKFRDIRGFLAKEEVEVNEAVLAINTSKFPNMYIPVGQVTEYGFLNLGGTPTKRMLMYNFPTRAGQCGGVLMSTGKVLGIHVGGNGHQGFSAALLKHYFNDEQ

SMILES | intestinal histopathology (H&E) (EV-A71 [1]) | EC50 (EV-A71 [3]) [µM] | EC50 (PV1) [µM] | CC50 [5] [µM] | phase-specific activity, time-of-addition, CV-A9 (CV-A9 [6]) | inhibitory activity against 2A^pro (CV-A9 2A^pro) | inhibitory activity against IRES elements (IRES) | CC50 (in vitro [7]) [µM] | CC50 (in vitro [8]) [µM] | inhibitory activity against 3D^pol (CV-A9 3D^pol) | inhibition at 50 µM (IL-6) [%] | primary screening result by CV-A9-induced CPEs (CV-A9 [9]) | ZIP score of the combination with velutin (CV-A9 [10]) | EC50 (CV-A9 [2]; RD) [µM] | EC50 (CV-B3; [13]) [µM] | EC50 (Echo-11; read-out: EC50 against Echo-11) [µM] | EC50 (CV-A9 [4]; [14]) [µM] | inhibition at 25 µM (CV-A9 [11]; [15]) [%] | other results
Nc1ccc(C(=O)Nc2cccc(-c3nc(N4CCOCC4)c4oc5ncccc5c4n3)c2)cn1 [YM-201636, reference compound] | partial shedding of intestinal epithelial cells | – | – | – | – | – | – | – | – | – | – | – | – | – | – | – | – | – | –
COc1cc(-c2oc3cc(O)cc(O)c3c(=O)c2O)ccc1O [isorhamnetin] | – | 14.6 | 13.9 | > 100 | pan-stage suppression spanning both entry and post-entry phases | no inhibitory activity | no inhibitory activity | > 100 | > 100 | no inhibitory activity | ~60 | identified as CV-A9 inhibitors | 3.126 | – | – | – | – | – | EC50 (CV-A9 [2]; RD cells, MOI 0.001): 2.23 µM; EC50 (CV-B3; Vero C1008, MOI 0.001, read-out: EC50 against CV-B3): 1.62 µM; EC50 (Echo-11; MOI 0.005, read-out: EC50 against Echo-11): 20.6 µM; EC50 (CV-A9 [4]; Huh-7 cells, read-out: EC50 against CV-A9): 9.07 µM; inhibition at 1000 µM (CV-B3 3C^pro): ~50%; inhibition of CV-A9-induced MCP-1 upregulation (MCP-1; 50 μM): without significant effects; inhibition of CV-A9-induced COX-2 upregulation (COX-2; 50 μM): without significant effects; inhibition of CV-A9-induced TNF-α upregulation (TNF-α; 50 μM, RD cells, MOI 0.001, 24 h): without significant effects
COc1cc(O)c2c(=O)cc(-c3ccc(O)c(OC)c3)oc2c1 [velutin] | no hydropic degeneration of the epithelial cells | 2.18 | 0.96 | > 100 | pan-stage suppression spanning both entry and post-entry phases | no inhibitory activity | no inhibitory activity | > 100 | > 100 | no inhibitory activity | 70 to 80 | identified as CV-A9 inhibitors | – | 0.76 | 2.26 | 0.69 | 3.7 | 40.5 | inhibition at 25 µM (CV-A9 [11]; read-out: inhibition of CV-A9 internalization): 38.2%; post-entry viral load kinetics, CV-A9 (CV-A9 [12]): significantly suppressed intra- and extracellular viral proliferation; inhibition at 50 µM (MCP-1; Homo sapiens, read-out: inhibition of CV-A9-induced MCP-1 upregulation): 20%; inhibition at 50 µM (COX-2; Homo sapiens, read-out: inhibition of CV-A9-induced COX-2 upregulation): 70 to 80%; inhibition at 50 µM (TNF-α; Homo sapiens, RD, 24 h, read-out: inhibition of CV-A9-induced TNF-α upregulation): 70 to 80%
Oc1cccc(O)c1O [pyrogallol] | – | > 100 | > 100 | > 100 | exclusively targeted viral attachment | – | – | > 100 | > 100 | – | – | identified as CV-A9 inhibitors | 1.684 | 10.5 | 1.78 | > 100 | 8.83 | 32.4 | inhibition of CV-A9 internalization (CV-A9 [11]; 25 µM): without affecting cellular internalization
O=C(O[C@@H]1Cc2c(O)cc(O)cc2O[C@@H]1c1ccc(O)c(O)c1)c1cc(O)c(O)c(O)c1 [(−)-epicatechin gallate] | – | – | – | – | pan-stage suppression spanning both entry and post-entry phases | no inhibitory activity | no inhibitory activity | – | – | no inhibitory activity | – | identified as CV-A9 inhibitors | 1.443 | – | – | – | – | – | inhibition of CV-B3 3C^pro protease activity (CV-B3 3C^pro): about 50%; CC50 (Vero E6 cells): > 100 µM; CC50 (Huh-7 cells): > 100 µM
